Blank lines part the entries; values can stand above or below the molecule they belong to.
Legend:
[1] = biological target: T1, human orotate phosphoribosyltransferase (HsOPRT), OPRT domain of UMP synthase (Homo sapiens, UniProt P11172); assay: steady-state kinetics; assay type: biochemical; details: read-out: OMP / Km
T1 sequence (P11172 2-245): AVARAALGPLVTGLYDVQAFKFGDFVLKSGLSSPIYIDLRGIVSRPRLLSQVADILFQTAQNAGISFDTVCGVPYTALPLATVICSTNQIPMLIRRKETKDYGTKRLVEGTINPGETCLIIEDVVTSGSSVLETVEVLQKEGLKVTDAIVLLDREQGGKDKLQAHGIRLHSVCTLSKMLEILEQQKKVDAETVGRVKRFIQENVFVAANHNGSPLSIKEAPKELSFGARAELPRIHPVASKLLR

[2] = biological target: Plasmodium falciparum orotate phosphoribosyltransferase (PfOPRT) (Plasmodium falciparum, UniProt Q8N0R1); assay type: biochemical
[3] = biological target: T1, human orotate phosphoribosyltransferase (HsOPRT), OPRT domain of UMP synthase; assay type: biochemical
purified protein = substrate: O=C(O)c1cc(=O)[nH]c(=O)n1[C@@H]1O[C@H](COP(=O)(O)O)[C@@H](O)[C@H]1O; assay: purified protein; assay type: biochemical, Plasmodium falciparum; details: Mg2+ ([…] MgCl2 in assay); pH 8.0; 25.0 °C
steady-state kinetics = substrate: O=C(O)CP(=O)(O)O; assay: steady-state kinetics; assay type: biochemical, Plasmodium falciparum; details: Mg2+ ([…] MgCl2 in assay)

Molecule: O=C(O)c1cc(=O)[nH]c(=O)n1[C@@H]1O[C@H](COP(=O)(O)O)[C@@H](O)[C@H]1O [orotidine 5′-monophosphate]
Km [1]: 1.55 ± 0.61 µM

B1: Plasmodium falciparum orotate phosphoribosyltransferase (PfOPRT) (Plasmodium falciparum) (protein)
chain: MTTIKENEFLCDEEIYKSFVHLKDKICEERKKKELVNNNIDNVNFNDDDDNNYDDDGNSYSSYIKEMKKLLKVVLLKYKALKFGEFILKSKRKSNYFFSSGVLNNIVSSNIICFLLSELILKNKLSFDYLLGASYKGIPMVSLTSHFLFESKKYSNIFYLYDRKEKKEYGDKNVIVGNLDDDDKDILNLKKKTKNNQDEEKKNIIIIDDVFTCGTALTEILAKLKTYEHLKVVAFIVLLNRNEYEINENNQKIYFKDIFEKRVGIPLYSILSYKDDIQSMI
Km (purified protein): 3.73 ± 1.36 µM
kcat (purified protein): 1.96 ± 0.29 s⁻¹
kcat/Km (purified protein): 530000 M⁻¹ s⁻¹
Km (steady-state kinetics): 1590 µM

Second part, the molecule after the results:

Ki [2]: 40 ± 21 nM
Molecule: O=[N+]([O-])c1ccc(O[C@@H]2O[C@H](COP(=O)(O)O)[C@@H](O)[C@H]2O)cc1 [p-nitrophenyl β-D-ribose 5′-phosphate]

Ki [3]: 121 ± 30 nM
Ki [2]: 188 ± 40 nM
Molecule: O=[N+]([O-])c1ccc(O[C@@H]2O[C@H](CO)[C@@H](O)[C@H]2O)cc1 [p-nitrophenyl β-D-ribose]
